Test results: ChEMBL document CHEMBL3352419, “Antiprotozoal activity of 8-acyl and 8-alkyl incomptine A analogs” (Bioorg Med Chem Lett, 2014)
≈ marks a conversion by molar mass, not a printed value.

Experiments:
[1] = system: Giardia intestinalis; assay: Antiprotozoal activity against Giardia lamblia IMSS: 8909:1 trophozoites assessed as growth inhibition compound treated for 48 hrs measured 48 hrs post wash-out by MTT assay; type: functional, organism-based; settings: Giardia duodenalis, IMSS: 8909:1, 48 h
[2] = system: Entamoeba histolytica; assay: Antiprotozoal activity against Entamoeba histolytica HM-1:IMSS trophozoites assessed as growth inhibition compound treated for 48 hrs measured 48 hrs post wash-out by MTT assay; type: functional, organism-based

SMILES	IC50 [1] [µg/mL]	IC50 [2] [µg/mL]
C=C1C(=O)O[C@H]2/C=C(C)\C=C/[C@H]3O[C@]3(C)C[C@@H](OC(C)=O)[C@@H]12	18.1 (≈ 59.5 µM)	2.6 (≈ 8.54 µM)
C=C1C(=O)O[C@H]2/C=C(C)\C=C/[C@H]3O[C@]3(C)C[C@@H](O)[C@@H]12	257 (≈ 979 µM)	138 (≈ 525 µM)
C=C1C(=O)O[C@H]2/C=C(C)\C=C/[C@H]3O[C@]3(C)C[C@@H](OC(=O)C(F)(F)F)[C@@H]12	43.3 (≈ 121 µM)	37.7 (≈ 105 µM)
C=C1C(=O)O[C@H]2/C=C(C)\C=C/[C@H]3O[C@]3(C)C[C@@H](OC(=O)CC)[C@@H]12	68.8 (≈ 216 µM)	51.6 (≈ 162 µM)
C=C1C(=O)O[C@H]2/C=C(C)\C=C/[C@H]3O[C@]3(C)C[C@@H](OC(=O)CCC)[C@@H]12	51.7 (≈ 156 µM)	49.1 (≈ 148 µM)
C=C1C(=O)O[C@H]2/C=C(C)\C=C/[C@H]3O[C@]3(C)C[C@@H](OC(=O)C(C)C)[C@@H]12	62.2 (≈ 187 µM)	52.7 (≈ 159 µM)
C=C1C(=O)O[C@H]2/C=C(C)\C=C/[C@H]3O[C@]3(C)C[C@@H](OC(=O)CCCC)[C@@H]12	58.3 (≈ 168 µM)	51.7 (≈ 149 µM)
C=C(C)C(=O)O[C@@H]1C[C@@]2(C)O[C@@H]2/C=C\C(C)=C/[C@@H]2OC(=O)C(=C)[C@@H]21	44.2 (≈ 134 µM)	32.7 (≈ 99 µM)
C=C1C(=O)O[C@H]2/C=C(C)\C=C/[C@H]3O[C@]3(C)C[C@@H](OC)[C@@H]12	35.2 (≈ 127 µM)	29.4 (≈ 106 µM)
C=C1C(=O)O[C@H]2/C=C(C)\C=C/[C@H]3O[C@]3(C)C[C@@H](OCC)[C@@H]12	43.8 (≈ 151 µM)	31.9 (≈ 110 µM)
C=C1C(=O)O[C@H]2/C=C(C)\C=C/[C@H]3O[C@]3(C)C[C@@H](OCCC)[C@@H]12	31.2 (≈ 103 µM)	35.9 (≈ 118 µM)
C=C1C(=O)O[C@H]2/C=C(C)\C=C/[C@H]3O[C@]3(C)C[C@@H](OC(C)C)[C@@H]12	32.7 (≈ 107 µM)	28.7 (≈ 94.3 µM)
C=C1C(=O)O[C@H]2/C=C(C)\C=C/[C@H]3O[C@]3(C)CC(=O)[C@@H]12	30.6 (≈ 118 µM)	34.9 (≈ 134 µM)
